# Test results published in patent US8530513B1, “Pharmaceutical uses of diterpene excavatolide B from a coral or an analogue thereof” (National Sun Yat-Sen University, priority 2012, dated 2013).
# Tests used:
# [1] = test system: abdominal skins of female C57BL/6 mice; test: TPA-induced vascular permeability assay (Evans blue extravasation); format: in vivo, mouse; details: Evans blue OD 620 nm
# Experimental: TPA-induced vascular permeability assay was modified and performed as previously described (Thurston G, Suri C, Smith K, McClain J, Sato T N, Yancopoulos G D, McDonald D M. Science 1999, 286:2511-2514). Shaved abdominal skins of female C57BL/6JNarl mice were topically treated with vehicle (acetone, 200 μl/site) or TPA (10 nmol in 200 μl acetone/site) for 6 h or treated with TPA for 10 min and subsequently treated for 6 h with the indicated concentrations of BrD1. Abdominal skins of untreated mice were used as the control group. One percent Evans blue dye (100 μl) was injected into mouse tail veins. After 20 min, anatomical appearances of mouse abdomens from the various treatments were photographically recorded. Abdominal skins representative of each test group were removed, turned over and photographed. Evans blue dye extravasated into the skins was extracted by incubation of the skin samples in 99% N,N-dimethyl-formamide overnight at 60° C. and optical density was measured at 620 nm.
# Acute inflammatory reactions are known to include changes in vascular permeability, edema and cellular infiltration (Rao T S, Currie J L, Shaffer A F, Isakson P C. Inflammation 1993, 17:723-741). In order to evaluate the anti-inflammatory effect of BrD1 on TPA-induced dermatitis in a murine model, we initially evaluated the possible inhibitory effect of BrD1 on TPA-induced vascular permeability. […]
# MMP-9 mRNA = test: TPA-induced MMP-9 mRNA expression in mouse skin, RT-PCR; format: in vivo; details: for TPA-induced MMP-9 mRNA expression (in words): topical after TPA, 6 h, indicated concentrations
# Experimental: Shaven abdominal skins of female C57BL/6JNarl mice were untreated or topically treated with vehicle (acetone, […]) or TPA (10 nmol in […]) for 6 h or treated first with TPA for 10 min and then with the indicated concentrations of BrD1 for 6 h. Total RNA was extracted from treated abdominal skins of female mice using TRIzol reagent (Invitrogen Corp., Carlsbad, Calif.). RT-PCR reactions using AccessQuick RT-PCR system (Promega, Madison, Wis.) were carried out as described previously. The primers contained the following sequences: mouse MMP-9 sense primer 5′-[…]-3′ (SEQ ID NO. 1), and anti-sense primer 5′-[…]-3′ (SEQ ID NO. 2); mouse GAPDH sense primer 5′-[…]-3′ (SEQ ID NO. 3), and anti-sense primer 5′-[…]-3′ (SEQ ID NO. 4). Gel images were scanned and densitometry analysis of the captured image was performed using Gene Tools software (Syngene, Cambridge, UK).
# Matrix metalloproteinases (MMPs) play a crucial role in many physiological and pathological processes through remodeling extracellular matrix tissues (Stamenkovic I. J Pathol 2003, 200:448-464). Matrix metalloproteinase-9 (MMP-9), a gelatinase which has a key role in inflammatory response, is activated in skin during tissue injury (Shakarjian M P, Bhatt P, Gordon M K, Chang Y C, Casbohm S L, Rudge T L, Kiser R C, Sabourin C L, Casillas R P, Ohman-Strickland P, Riley D J, Gerecke D R. J Appl Toxicol 2006, 26:239-246). In order to evaluate the anti-inflammatory effect of BrD1 on MMP-9 activation in TPA-inflamed skin, BrD1 was topically applied after TPA treatment for 24 h. […] Inhibiton of TPA-inducedMMP-9 expression by BrD1 treatment could also be readily observed at the mRNA level.
# Erk1/2 = test: TPA-induced Erk phosphorylation in mouse skin, western blot; format: in vivo; details: topical for 2 h after TPA
# Experimental: (§1) Shaven abdominal skins of female C57BL/6JNarl mice were not treated or topically treated with vehicle (acetone, 200 μl/site) or TPA (10 nmol in 200 μl acetone/site) at indicated time points or treated first with TPA for 10 min, then with the indicated concentrations of BrD1 at the indicated time points. Abdominal skin samples were collected, homogenated and lysed to prepare total proteins. Protein samples were subsequently resolved by SDS-PAGE using a gradient gel. The resolved proteins were transferred to a PVDF Immobilon-P membrane (Millipore, Bedford, Calif.), and the membrane was blocked with 5% non-fat dry milk in PBST buffer (phosphate-buffered saline (PBS) containing 0.1% Tween 20) for 60 minutes at room temperature. The membranes were incubated overnight at 4° C. with commercially available antibodies (1:1000 dilutions). Loading of equal amounts of protein was assessed using mouse β-actin. The blots were rinsed three times with PBST buffer for 5 minutes. Washed blots were incubated with HRP-conjugated secondary antibody (1:100,000 dilution), then washed again three times with PBST buffer. […] Quantification of bands was performed using Image J software.
# (§2) We therefore evaluated whether BrD1 could interfere with TPA-induced activation of Akt and Erk in inflamed skin. […] We thus determined the phosphorylation level of Akt, Erk, NF-κB and IκBα in skins subjected to different treatments. […]
# NF-κB = test: TPA-induced NF-κB phosphorylation in mouse skin, western blot; format: in vivo; details: topical for 2 h after TPA
# Experimental: as §1, §2
# Akt = test: TPA-stimulated Akt phosphorylation in mouse skin, western blot; format: in vivo; details: topical for 2 h after TPA
# Experimental: as §1, §2
smiles,measurement,setting,value
"CCCC(=O)O[C@H]1C/C(C)=C\[C@@H]2OC(=O)[C@]3(C)O[C@]23[C@@H](OC(C)=O)[C@H]2[C@@H](C)[C@@H](O)C[C@H](OC(C)=O)[C@]2(C)[C@H]1OC(C)=O [BrD1, excavatolide B]",level of inhibition of TPA-induced vascular permeability,[1]; 0.5 mg/site topical for 6 h after TPA (10 nmol) 10 min,approximately 58%
same,level of inhibition of TPA-induced vascular permeability,[1]; 1 mg/site topical for 6 h after TPA (10 nmol) 10 min,~77%
same,inhibition of TPA-induced MMP-9 mRNA expression,"MMP-9 mRNA; 1 mg/site/mouse topical, 6 h after TPA",≤ 82%
same,TPA-induced MMP-9 mRNA expression (in words),MMP-9 mRNA,significantly inhibited MMP-9 mRNA expression in a dose-dependent manner
same,TPA-induced MMP-9 mRNA expression (in words),MMP-9 mRNA; listed as excavatolide B,significantly inhibits MMP-9 mRNA expression in a dose-dependent manner
same,TPA-induced Erk phosphorylation,Erk1/2,inhibit TPA-induced Erk phosphorylation only slightly
same,phosphorylation of NF-κB,NF-κB,effectively inhibited the phoshporylation of NF-κB
same,phosphorylation of NF-κB,NF-κB; listed as excavatolide B,effectively inhibits the phoshporylation of NF-κB
same,TPA-stimulated phosphorylation of Akt,Akt,significantly inhibited the TPA-stimulated phosphorylation of Akt
same,TPA-stimulated phosphorylation of Akt,Akt; listed as excavatolide B,significantly inhibits the TPA-stimulated phosphorylation of Akt
